From patent US7495098B2, “Extraction of alkaloids from opium” (Mallinckrodt Inc, priority 2004, dated 2009)

Assays:
[1] = Alkaloid partition coefficients, pH 3.0 (mixing cylinder liquid extraction of opium filtrate, HPLC assay of layers); assay type: physicochemical
Excerpt: The next part of the experiment was to test various solvents to identify possible candidates for liquid extraction so that the alkaloids can be separated and purified. There was fifty (50) milliliters of filtrate and fifty (50) milliliters of solvent were charged to one hundred (100) milliliter mixing cylinders. The one hundred (100) milliliter cylinders were shaken for thirty (30) seconds at approximately one (1) shake per second. The one hundred (100) milliliter mixing cylinders were allowed to settle, and the locations of the bottom and top of the rag layer were recorded over time. The results for one trial of the hydrochloric acid extraction of opium is presented in Table 2, and the results of one trial of acetic acid extraction is presented in Table 3. The four solvents used were toluene, hexane, n-butanol (n-BuOH), and isopentyl alcohol (i-C5OH).
After the mixing cylinder studies were completed, the layers were sampled for High Pressure Liquid Chromatography (HPLC) assay and partition coefficients were obtained for each of the systems.

[2] = Alkaloid partition coefficients, pH 9.0 (acetic acid opium extract and organic solvent, equal volumes)
Procedure: Some experiments were conducted with solvents to investigate liquid extraction to purify or separate the alkaloids. In these experiments, the aliquot of solvent layer was allowed to evaporate to dryness prior to diluting to volume with the dilute acetic acid. The aliquots were evaporated in this manner to eliminate the effect of solvents on retention time and the peak shape of the chromatography assays. Partition coefficients were obtained by dividing the concentration of the alkaloid in the organic layer by the concentration of the alkaloid in the aqueous layer. The disappearance of the rag layer following liquid extraction was done by filing a mixing container, e.g., cylinder, with the aqueous solution and the solvent. The mixing container, e.g., cylinder is then sealed with a stopper and shook for a predetermined time interval at a certain rate and then recording the interface levels over time.
The phases were allowed to separate, and aliquots of each layer were taken.

[3] = Stability of alkaloids in the acid digest of opium suspension at pH 3.0, room temperature; settings: pH 3.0, up to 96 hours
Procedure: The purpose of Experiment I was to obtain side-by-side data of the performance of hydrochloric acid in relationship to acetic acid. The acid digestion occurred at room temperature for 96 hours. The opium suspensions were sampled at intervals, and assays were performed to test the rate of extraction of alkaloids from the opium.
The opium was dispersed by adding one liter of deionized water and 238 grams of opium to the blender. The blender was processed on “puree.” This is at 14,046 RPM, or a Reynold's number of 725,791 for two (2) minutes. The slurry was divided between two Erlenmeyer flasks. A tar ball remained in the bottom of the blender. The next step was to add 100 milliliters of water. The blender was then set to “liquefy.” This is at 20,495 RPM, or a Reynold's number of 991,216 for thirty (30) seconds. There was not an even distribution between the two Erlenmeyer flasks. This was followed by returning all of the slurry to the blender and processed on “liquefy” for an additional ten (10) seconds. The slurry was then split between the two Erlenmeyer flasks. The slurry was very frothy in appearance. The pH of each Erlenmeyer flask was adjusted to 3.0. In one Erlenmeyer flask, the pH was adjusted with hydrochloric acid (37%), and in the other Erlemneyer flask, the pH was adjusted with glacial acetic acid. […]

[4] = system BuOH/HCl (n-butanol, hydrochloric acid extract)
[5] = system BuOH/HOAc (n-butanol, acetic acid extract)
[6] = system CHCL3/HCl (chloroform, hydrochloric acid extract)
[7] = system CHCL3/HOAc (chloroform, acetic acid extract)
[8] = system I-pentyl/HCL (isopentyl alcohol, hydrochloric acid extract)
[9] = system I-pentyl/HOAc (isopentyl alcohol, acetic acid extract)

Structure (SMILES) | Alkaloid partition coefficient (concentration in organic layer / concentration in aqueous layer) [1, 4] | Alkaloid partition coefficient (concentration in organic layer / concentration in aqueous layer) [1, 5] | Alkaloid partition coefficient (concentration in organic layer / concentration in aqueous layer) [1, 6] | Alkaloid partition coefficient (concentration in organic layer / concentration in aqueous layer) [1, 7] | Alkaloid partition coefficient (concentration in organic layer / concentration in aqueous layer) [1, 8] | Alkaloid partition coefficient (concentration in organic layer / concentration in aqueous layer) [1, 9] | Alkaloid partition coefficient ([2]; system BuOH/HOAc) | Alkaloid partition coefficient ([2]; system Hexane/HOAc) | Alkaloid partition coefficient ([2]; system I-pentyl/HOAc) | Alkaloid partition coefficient ([2]; system Toluene/HOAc) | Stability (loss of alkaloid) in solution [3] | Portion of morphine originally present that decomposed (after 24 hours, extraction with butanol at pH 9.0 (FIG. 3)) | Decomposition during the extraction step (alkaline extraction with n-butanol and i-pentyl alcohol, pH 9.0, room temperature)
COc1ccc2c3c1O[C@H]1[C@@H](O)C=C[C@H]4[C@@H](C2)N(C)CC[C@@]341 [Codeine, codeine] | 0.1374 | 0.2277 | 0.0074 | 0.0341 | 0.0181 | 0.0319 | 18.9714 | 0.0735 | 19.6646 | 5.3686 | does not appear to be any significant loss |  | 
CN1CC[C@]23c4c5ccc(O)c4O[C@H]2[C@@H](O)C=C[C@H]3[C@H]1C5 [Morphine, morphine] |  |  |  |  |  |  |  |  |  |  |  | about half | decomposed
COC1=CC=C2[C@H]3Cc4ccc(OC)c5c4[C@@]2(CCN3C)[C@H]1O5 [Thebaine, thebaine] | 0.4312 | 0.6351 | 0.5363 | 1.5273 | 0.1053 | 0.1548 | 34.7434 | 1.8589 | 55.5035 | 154.6710 | does not appear to be any significant loss |  | 
